This data set concerns CCRIS mutagenicity, Ames/micronucleus/aberration tests. Put plainly: CCRIS mutagenicity studies.
[1] abbreviates: Test System: AMES SALMONELLA TYPHIMURIUM, Strain/Indicator: TA98, Metabolic Activation: NONE, Method: STANDARD PLATE.
The mark [2] stands for this setting: Test System: AMES SALMONELLA TYPHIMURIUM, Strain/Indicator: TA100, Metabolic Activation: NONE, Method: PREINCUBATION
Setting [3] is: Test System: AMES SALMONELLA TYPHIMURIUM, Strain/Indicator: TA98, Metabolic Activation: HAMSTER, LIVER, S-9, AROCLOR 1254 (10%), Method: PREINCUBATION
Setting [4] is: Test System: AMES SALMONELLA TYPHIMURIUM, Strain/Indicator: TA98, Metabolic Activation: NONE, Method: PREINCUBATION
Setting [5] is: Test System: AMES SALMONELLA TYPHIMURIUM, Strain/Indicator: TA98, Metabolic Activation: RAT, LIVER, S-9, AROCLOR 1254 (10%), Method: PREINCUBATION
Where [6] appears, read: Test System: AMES SALMONELLA TYPHIMURIUM, Strain/Indicator: TA100, Metabolic Activation: HAMSTER, LIVER, S-9, AROCLOR 1254 (10%), Method: PREINCUBATION
Where [7] appears, read: Test System: AMES SALMONELLA TYPHIMURIUM, Strain/Indicator: TA100, Metabolic Activation: RAT, LIVER, S-9, AROCLOR 1254 (10%), Method: PREINCUBATION
Setting [8] is: Test System: AMES SALMONELLA TYPHIMURIUM, Strain/Indicator: TA1535, Metabolic Activation: HAMSTER, LIVER, S-9, AROCLOR 1254 (10%), Method: PREINCUBATION
Where [9] appears, read: Test System: AMES SALMONELLA TYPHIMURIUM, Strain/Indicator: TA1535, Metabolic Activation: NONE, Method: PREINCUBATION
[10] abbreviates: Test System: AMES SALMONELLA TYPHIMURIUM, Strain/Indicator: TA1535, Metabolic Activation: RAT, LIVER, S-9, AROCLOR 1254 (10%), Method: PREINCUBATION
Where [11] appears, read: Test System: AMES SALMONELLA TYPHIMURIUM, Strain/Indicator: TA98, Metabolic Activation: HAMSTER, LIVER, S-9, AROCLOR 1254 (30%), Method: PREINCUBATION
Setting [12] is: Test System: AMES SALMONELLA TYPHIMURIUM, Strain/Indicator: TA98, Metabolic Activation: RAT, LIVER, S-9, AROCLOR 1254 (30%), Method: PREINCUBATION
Setting [13] is: Test System: AMES SALMONELLA TYPHIMURIUM, Strain/Indicator: TA100, Metabolic Activation: HAMSTER, LIVER, S-9, AROCLOR 1254 (30%), Method: PREINCUBATION
Where [14] appears, read: Test System: AMES SALMONELLA TYPHIMURIUM, Strain/Indicator: TA100, Metabolic Activation: RAT, LIVER, S-9, AROCLOR 1254 (30%), Method: PREINCUBATION

Molecules are shown by their SMILES. The source made the active and inactive calls. The rule behind the calls is not given here.

`[Cl][La]([Cl])[Cl]`: the mutagenic call (Test System: E. COLI, Strain/Indicator: WP2 UVRA, Metabolic Activation: NONE, Method: SPOT TEST) was “inactive; negative”.
Regarding `COc1cc(N=Nc2ccccc2)ccc1N=Nc1c(S(=O)(=O)O)cc2ccc(N)cc2c1O`, the mutagenic call runs as follows: under setting [1], “inactive; negative”; (Test System: AMES SALMONELLA TYPHIMURIUM, Strain/Indicator: TA98, Metabolic Activation: RAT, LIVER, S-9, AROCLOR 1254, Method: STANDARD PLATE) “active; positive”; (Test System: AMES SALMONELLA TYPHIMURIUM, Strain/Indicator: TA100, Metabolic Activation: NONE, Method: STANDARD PLATE) “inactive; negative”; (Test System: AMES SALMONELLA TYPHIMURIUM, Strain/Indicator: TA100, Metabolic Activation: RAT, LIVER, S-9, AROCLOR 1254, Method: STANDARD PLATE) “active; positive”; (Test System: AMES SALMONELLA TYPHIMURIUM, Strain/Indicator: TA1538, Metabolic Activation: NONE, Method: STANDARD PLATE) “inactive; negative”; (Test System: AMES SALMONELLA TYPHIMURIUM, Strain/Indicator: TA1538, Metabolic Activation: RAT, LIVER, S-9, AROCLOR 1254, Method: STANDARD PLATE) “active; positive”.
As to `CC(=O)Nc1ccc(Cc2ccc(N)c(Cl)c2)cc1Cl`, the mutagenic call under setting [2] was “inactive; negative” and the mutagenic call (Test System: AMES SALMONELLA TYPHIMURIUM, Strain/Indicator: TA100, Metabolic Activation: RAT, LIVER, S-9, AROCLOR 1254 (50, 100 OR 200 µL), Method: PREINCUBATION) is “active; positive”.
Regarding `NCCCCCCN`, the mutagenic call reads like this: under setting [3], “inactive; negative”; under setting [4], “inactive; negative”; under setting [5], “inactive; negative”; under setting [6], “inactive; negative”; under setting [2], “inactive; negative”; under setting [7], “inactive; negative”. Moreover, the mutagenic call was “inactive; negative” under setting [8]; “inactive; negative” under setting [9]; “inactive; negative” under setting [10]; “inactive; negative” (Test System: AMES SALMONELLA TYPHIMURIUM, Strain/Indicator: TA1537, Metabolic Activation: HAMSTER, LIVER, S-9, AROCLOR 1254 (10%), Method: PREINCUBATION); “inactive; negative” (Test System: AMES SALMONELLA TYPHIMURIUM, Strain/Indicator: TA1537, Metabolic Activation: NONE, Method: PREINCUBATION); “inactive; negative” (Test System: AMES SALMONELLA TYPHIMURIUM, Strain/Indicator: TA1537, Metabolic Activation: RAT, LIVER, S-9, AROCLOR 1254 (10%), Method: PREINCUBATION).
Take `CCCCOP(=O)(OCCCC)Oc1ccccc1`: the mutagenic call was “inactive; negative” (Test System: AMES SALMONELLA TYPHIMURIUM, Strain/Indicator: TA97, Metabolic Activation: HAMSTER, LIVER, S-9, AROCLOR 1254 (10%), Method: PREINCUBATION); “inactive; negative” (Test System: AMES SALMONELLA TYPHIMURIUM, Strain/Indicator: TA97, Metabolic Activation: HAMSTER, LIVER, S-9, AROCLOR 1254 (30%), Method: PREINCUBATION); “inactive; negative” (Test System: AMES SALMONELLA TYPHIMURIUM, Strain/Indicator: TA97, Metabolic Activation: NONE, Method: PREINCUBATION); “inactive; negative” (Test System: AMES SALMONELLA TYPHIMURIUM, Strain/Indicator: TA97, Metabolic Activation: RAT, LIVER, S-9, AROCLOR 1254 (10%), Method: PREINCUBATION); “inactive; negative” (Test System: AMES SALMONELLA TYPHIMURIUM, Strain/Indicator: TA97, Metabolic Activation: RAT, LIVER, S-9, AROCLOR 1254 (30%), Method: PREINCUBATION); “inactive; negative” under setting [3]. Further, the mutagenic call was “inactive; negative” under setting [11]; “inactive; negative” under setting [4]; “inactive; negative” under setting [5]; “inactive; negative” under setting [12]; “inactive; negative” under setting [6]; “inactive; negative” under setting [13]. Moreover, the mutagenic call is, setting by setting: under setting [2], “inactive; negative”; under setting [7], “inactive; negative”; under setting [14], “inactive; negative”; under setting [8], “inactive; negative”; (Test System: AMES SALMONELLA TYPHIMURIUM, Strain/Indicator: TA1535, Metabolic Activation: HAMSTER, LIVER, S-9, AROCLOR 1254 (30%), Method: PREINCUBATION) “inactive; negative”; under setting [9], “inactive; negative”. For the same compound, the mutagenic call runs as follows: under setting [10], “inactive; negative”; (Test System: AMES SALMONELLA TYPHIMURIUM, Strain/Indicator: TA1535, Metabolic Activation: RAT, LIVER, S-9, AROCLOR 1254 (30%), Method: PREINCUBATION) “inactive; negative”.
For `O=Nc1ccc2ccc3c4c(cc5ccc1c2c53)CCCC4`, the mutagenic call under setting [1] was “active; positive”.
On to `OCC(O)CI` (stereo not drawn), for which the mutagenic call was “inactive; negative” under setting [11]; “inactive; negative” under setting [4]; “inactive; negative” under setting [12]; “active; positive” under setting [13]; “active; positive” under setting [2]; “active; positive” under setting [14].
